Assay results: ChEMBL document CHEMBL4190339, “Design, synthesis and preliminary biological evaluation of new [1,2,3]triazolo[4,5-d]pyrimidine/thiourea hybrids as antiproliferative agents” (Eur J Med Chem, 2017)

Columns and labels:
MKN-45 = experiment: Antiproliferative activity against human MKN45 cells after 48 hrs by MTT assay; type: functional, cell-based; conditions: MKN-45, 48 h
MGC-803 = experiment: Antiproliferative activity against human MGC803 cells after 48 hrs by MTT assay; type: functional, cell-based; conditions: MGC-803, 48 h
NCI-H1650 = experiment: Antiproliferative activity against human NCI-H1650 cells after 48 hrs by MTT assay; type: functional, cell-based; conditions: NCI-H1650, 48 h
A549 = experiment: Antiproliferative activity against human A549 cells after 48 hrs by MTT assay; type: functional, cell-based; conditions: A549, 48 h
ECa-109 cell line = experiment: Antiproliferative activity against human EC109 cells after 48 hrs by MTT assay; type: functional, cell-based; conditions: ECa-109, 48 h
GES1 = experiment: Antiproliferative activity against human GES-1 cells after 48 hrs by MTT assay; type: cell-based; conditions: GES1, 48 h

Compound | IC50 (MKN-45) [µM] | IC50 (MGC-803) [µM] | IC50 (NCI-H1650) [µM] | IC50 (A549) [µM] | IC50 (ECa-109 cell line) [µM] | IC50 (GES1) [µM]
CCCSc1nc(NCCNC(=S)NCc2ccccc2)c2nnn(CCc3ccccc3)c2n1 | 22.9 | 17.4 | > 64 | > 64 | 13.8 | 51.3
CCCSc1nc(NCCNC(=S)Nc2ccc(C)cc2)c2nnn(CCc3ccccc3)c2n1 | 50.6 | 35.2 | 58.8 | 42.4 | 28.4 | 43
CCCSc1nc(NCCNC(=S)Nc2cccnc2)c2nnn(Cc3ccccc3)c2n1 | 15.1 | 24 | 9.56 | 12 | 10.8 | 21.9
CCCSc1nc(NCCNC(=S)Nc2ccc(Cl)cc2)c2nnn(CCc3ccccc3)c2n1 | 37.6 | 27.2 | 13.2 | 23.2 | 10.6 | 41.2
CCCSc1nc(NCCNC(=S)Nc2cccc3ccccc23)c2nnn(CCc3ccccc3)c2n1 | 9.73 | > 64 | 6.51 | 40.9 | > 64 | > 64
CCCSc1nc(NCCNC(=S)Nc2cccnc2)c2nnn(C3CCCC3)c2n1 | 13.5 | 19.2 | 8.99 | 15.1 | 12.6 | 32.9
O=c1[nH]cc(F)c(=O)[nH]1 [FLUOROURACIL] |  |  |  |  |  | 9.02
CCCSc1nc(NCCNC(=S)Nc2cccc(Cl)c2)c2nnn(CCc3ccccc3)c2n1 | 30.1 | 27 | 17 | 15.8 | 11.8 | 60.4
CCCSc1nc(NCCNC(=S)Nc2cccnc2)c2nnn(CCc3ccccc3)c2n1 | 6.58 | 16.4 | 2.38 | 8.23 | 4.99 | 30.3
CCCSc1nc(NCCNC(=S)Nc2ccc(Br)cc2)c2nnn(CCc3ccccc3)c2n1 | 40 | 38.1 | 51.1 | 32.5 | 23.1 | > 64
